Results reported in DBAASP.
≈ marks a conversion by molar mass, not a printed value. Blank lines part the entries; values can stand above or below the compound they belong to.

Legend:
Assay in all cases: ≥ marks a high value that may be exact or a test limit, other limits are often not marked, values filed in µg/mL are converted to µM
Bacillus megaterium Bm11 = system: Bacillus megaterium Bm11
Staphylococcus capitis 1 = system: Staphylococcus capitis 1
[1] = system: Escherichia coli ATCC 25922
[2] = system: Candida albicans ATCC 10231
[3] = system: Yersinia pseudotuberculosis YPIII
[4] = system: Staphylococcus aureus Cowan 1
[5] = system: Staphylococcus aureus ATCC 12600
[6] = system: Escherichia coli ATCC 11775
Botrytis cinerea = system: Botrytis cinerea
[7] = system: Pseudomonas aeruginosa 910
[8] = system: Pseudomonas aeruginosa 253
[9] = system: Pseudomonas aeruginosa PAO1
[10] = system: Pseudomonas aeruginosa 919
Escherichia coli JM109 = system: Escherichia coli JM109
[11] = system: Staphylococcus aureus ATCC 6538P
Staphylococcus aureus = system: Staphylococcus aureus
[12] = system: Veillonella atypica PK1910
[13] = system: Lacticaseibacillus casei ATCC 4646
[14] = system: Streptococcus sanguinis NY101
[15] = system: Streptococcus mitis ATCC 903
Streptococcus mutans = system: Streptococcus mutans
[16] = system: Streptococcus gordonii Challis DL1

- MIC (Bacillus megaterium Bm11): 5 µM (≈ 6.77 µg/mL)
- MIC (Staphylococcus capitis 1): 20 µM (≈ 27.1 µg/mL)
- MIC [1]: > 40 µM
- MIC [2]: 10 µM (≈ 13.5 µg/mL)
- MIC [3]: ≥ 40 µM
- MIC [4]: 20 µM (≈ 27.1 µg/mL)
Structure (SMILES): CC[C@H](C)[C@H](NC(=O)CNC(=O)[C@H](CO)NC(=O)[C@H](CC(C)C)NC(=O)[C@@H](NC(=O)[C@H](CCCN=C(N)N)NC(=O)CNC(=O)[C@@H](NC(=O)[C@H](CC(C)C)NC(=O)[C@@H]1CCCN1C(=O)[C@H](C)NC(=O)[C@@H](N)Cc1ccccc1)[C@@H](C)CC)C(C)C)C(=O)N[C@@H](CC(C)C)C(N)=O [FAPLIGRVLSGIL]

- MIC [5]: ≥ 50 µM
- MIC [2]: > 200 µM
- MIC [6]: ≥ 200 µM
- MIC (Botrytis cinerea): 5 µM (≈ 8.14 µg/mL)
Structure (SMILES): CC[C@H](C)[C@H](NC(=O)CNC(=O)[C@H](CO)NC(=O)[C@H](CC(C)C)NC(=O)[C@H](CC(C)C)NC(=O)CNC(=O)[C@@H](NC(=O)[C@@H](NC(=O)[C@@H]1CCCN1C(=O)CNC(=O)[C@@H](N)Cc1ccccc1)C(C)C)[C@@H](C)CC)C(=O)N[C@@H](CC(C)C)C(=O)N[C@@H](CCCCN)C(=O)N[C@@H](CO)C(=O)N[C@@H](CC(C)C)C(=O)N[C@@H](CC(C)C)C(=O)O [FGPVIGLLSGILKSLL]

- MIC [7]: 8 µM (≈ 14.6 µg/mL)
- MIC [8]: 16 µM (≈ 29.1 µg/mL)
- MIC [9]: 4 µM (≈ 7.28 µg/mL)
- MIC [10]: 22.6 µM (≈ 41.2 µg/mL)
Structure (SMILES): CC[C@H](C)[C@H](NC(=O)[C@@H](N)Cc1ccccc1)C(=O)N[C@@H](CCCCN)C(=O)N[C@@H](Cc1c[nH]c2ccccc12)C(=O)N[C@@H](CCCCN)C(=O)N[C@@H](Cc1ccccc1)C(=O)N[C@@H](CCCN=C(N)N)C(=O)N1CCC[C@H]1C(=O)N[C@@H](Cc1c[nH]c2ccccc12)C(=O)N[C@@H](CCCCN)C(=O)N[C@@H](CCCCN)C(=O)N[C@@H](CCCN=C(N)N)C(=O)N[C@H](C(N)=O)[C@@H](C)O [FIKWKFRPWKKRT]

- MIC (Bacillus megaterium Bm11): 2.5 µM (≈ 3.53 µg/mL)
- MIC (Staphylococcus capitis 1): 5 µM (≈ 7.05 µg/mL)
- MIC [1]: > 40 µM
- MIC [2]: 2.5 µM (≈ 3.53 µg/mL)
- MIC [3]: 20 µM (≈ 28.2 µg/mL)
- MIC [4]: 2.5 µM (≈ 3.53 µg/mL)
Structure (SMILES): CC[C@H](C)[C@H](NC(=O)[C@H](C)NC(=O)[C@H](CO)NC(=O)[C@H](CC(C)C)NC(=O)[C@@H](NC(=O)[C@H](CCCN=C(N)N)NC(=O)CNC(=O)[C@@H](NC(=O)[C@H](CC(C)C)NC(=O)[C@@H]1CCCN1C(=O)[C@H](CC(C)C)NC(=O)[C@@H](N)Cc1ccccc1)[C@@H](C)CC)C(C)C)C(=O)N[C@@H](CC(C)C)C(N)=O [FLPLIGRVLSAIL]

- MIC (Escherichia coli JM109): 1 µM (≈ 1.86 µg/mL)
Structure (SMILES): CC[C@H](C)[C@H](N)C(=O)N[C@@H](CC(C)C)C(=O)N1CCC[C@H]1C(=O)N[C@@H](Cc1c[nH]c2ccccc12)C(=O)N[C@@H](CCCCN)C(=O)N[C@@H](Cc1c[nH]c2ccccc12)C(=O)N[C@@H](CCCCN)C(=O)N[C@@H](Cc1ccccc1)C(=O)N[C@@H](Cc1ccccc1)C(=O)N1CCC[C@H]1C(=O)N[C@@H](Cc1c[nH]c2ccccc12)C(=O)N[C@@H](CCCN=C(N)N)C(=O)N[C@@H](CCCN=C(N)N)C(N)=O [ILPWKWKFFPWRR]

- MIC (Escherichia coli JM109): ≥ 37.4 µM
- MIC [11]: 14 µM
- MIC (Staphylococcus aureus): > 49.9 µM
Structure (SMILES): CC[C@H](C)[C@H](NC(=O)[C@H](C)NC(=O)[C@H](CC(C)C)NC(=O)[C@H](CS)NC(=O)[C@H](Cc1cnc[nH]1)NC(=O)[C@H](C)NC(=O)[C@H](C)NC(=O)[C@H](CS)NC(=O)[C@@H](N)CC(C)C)C(=O)NCC(=O)N[C@@H](CCCN=C(N)N)C(=O)N[C@@H](CCCN=C(N)N)C(N)=O [LCAAHCLAIGRR]

- MIC [12]: 2.65 µM (≈ 8 µg/mL)
- MIC [13]: 2.65 µM (≈ 8 µg/mL)
- MIC [14]: 2.65 µM (≈ 8 µg/mL)
- MIC [15]: 21.2 µM (≈ 64 µg/mL)
- MIC (Streptococcus mutans): 1.87 µM (≈ 5.66 µg/mL)
- MIC [16]: 5.3 µM (≈ 16 µg/mL)
Structure (SMILES): NCCCC[C@H](NC(=O)[C@H](Cc1ccccc1)NC(=O)CNC(=O)CNC(=O)CNC(=O)[C@H](Cc1ccccc1)NC(=O)[C@H](Cc1c[nH]c2ccccc12)NC(=O)[C@H](CCCN=C(N)N)NC(=O)[C@H](Cc1c[nH]c2ccccc12)NC(=O)[C@H](CCCN=C(N)N)NC(=O)[C@H](Cc1c[nH]c2ccccc12)NC(=O)[C@@H](N)CCCN=C(N)N)C(=O)N[C@@H](CCCCN)C(=O)N[C@@H](Cc1ccccc1)C(=O)N[C@@H](Cc1c[nH]c2ccccc12)C(=O)N[C@@H](CCCCN)C(=O)N[C@@H](Cc1c[nH]c2ccccc12)C(=O)N[C@@H](Cc1ccccc1)C(=O)N[C@@H](CCCN=C(N)N)C(=O)N[C@@H](CCCN=C(N)N)C(=O)N[C@@H](Cc1ccccc1)C(N)=O [RWRWRWFGGGFKKFWKWFRRF]

- MIC [12]: 5.49 µM (≈ 16 µg/mL)
- MIC [13]: 2.74 µM (≈ 8 µg/mL)
- MIC [14]: 5.49 µM (≈ 16 µg/mL)
- MIC [15]: 22 µM (≈ 64 µg/mL)
- MIC (Streptococcus mutans): 2.74 µM (≈ 8 µg/mL)
- MIC [16]: 11 µM (≈ 32 µg/mL)
Structure (SMILES): CC(C)C[C@H](NC(=O)CNC(=O)CNC(=O)CNC(=O)[C@H](Cc1ccccc1)NC(=O)[C@H](Cc1c[nH]c2ccccc12)NC(=O)[C@H](CCCN=C(N)N)NC(=O)[C@H](Cc1c[nH]c2ccccc12)NC(=O)[C@H](CCCN=C(N)N)NC(=O)[C@H](Cc1c[nH]c2ccccc12)NC(=O)[C@@H](N)CCCN=C(N)N)C(=O)N[C@@H](CCCCN)C(=O)N[C@@H](CCCN=C(N)N)C(=O)N[C@@H](Cc1ccccc1)C(=O)N[C@@H](CC(C)C)C(=O)N[C@@H](CCCCN)C(=O)N[C@@H](Cc1c[nH]c2ccccc12)C(=O)N[C@@H](Cc1ccccc1)C(=O)N[C@@H](CCCCN)C(=O)N[C@@H](CCCN=C(N)N)C(=O)N[C@@H](Cc1ccccc1)C(N)=O [RWRWRWFGGGLKRFLKWFKRF]

- MIC [7]: 8 µM (≈ 11.6 µg/mL)
- MIC [8]: 8 µM (≈ 11.6 µg/mL)
- MIC [9]: 2 µM (≈ 2.89 µg/mL)
- MIC [10]: 2.83 µM (≈ 4.08 µg/mL)
Structure (SMILES): CC[C@H](C)[C@H](NC(=O)[C@H](CCCCN)NC(=O)[C@H](CCCN=C(N)N)NC(=O)[C@H](Cc1c[nH]c2ccccc12)NC(=O)[C@H](Cc1c[nH]c2ccccc12)NC(=O)[C@@H](N)CCCN=C(N)N)C(=O)N[C@@H](Cc1c[nH]c2ccccc12)C(=O)N[C@@H](CCCCN)C(=O)N[C@@H](Cc1c[nH]c2ccccc12)C(N)=O [RWWRKIWKW]
